This is an account of results in patent US6384080B1, “Anthranilic acid derivatives as inhibitors of the cGMP-phosphodiesterase” (Fujisawa Pharmaceutical Co., Ltd., priority 1998, dated 2002).

What is called IC50 is the concentration needed to halve the response being measured.

Molecules are shown by their SMILES. Structures can show the parent of a compound that is named as a salt.

In the first assay the target is T1, human platelet PDE-V (Homo sapiens, UniProt O76074).
T1 construct: Human platelet cGMP-PDE was separated from other isozymes in human platelets; from tissue; host or cells: human platelets
In words: cGMP-Phosphodiesterase (PDE) assay, enzymatic inhibitory test. Type of assay: biochemical.
Settings: not given
The protocol:
cGMP-Phosphodiesterase (PDE) Assay
Human platelet cGMP-PDE was separated from other isozymes in human platelets by a modification of the method of Thompson et. al. (see Cyclic Nucleotide Phosphodiesterase (PDE), in Methods of Enzymatic analysis, Vol 4, p127-234, 1984). In enzyme inhibition assays, the test compounds were dissolved in DMSO and then diluted with assay buffer (50 mM Tris-HCl, 0.077 mg/ml dithiothreitol and 10 mg/ml snake venom, 1 mM EGTA, pH 8.0), at final concentrations ranging from 10^−10 to 10^−6 M. Assays were performed at 0.1 μM substrate ([^3H]-cGMP) concentration, at 30° C. for 10 minutes using enzyme dilutions which gave 10-20% hydrolysis of substrate. Each assay was initiated by addition of substrate and terminated by addition of anion exchange resin (Dowex® 1-X8, 250 mg/mg) followed by centrifugation for 10 minutes (3000 rpm, at 4° C.). Radioactivity of supernatant (^3H-GMP) was assayed by liquid scintillation counting.
Turning to `CC[C@H](CO)Nc1ccc([N+](=O)[O-])cc1C(=O)NCc1ccc(Cl)c([N+](=O)[O-])c1` [(R)-N-(4-Chloro-3-nitrobenzyl)-2-[1-(hydroxymethyl)propylamino]-5-nitrobenzamide], the IC50 was below 10 nM.

The assay is the same for the next values; noted with them: human platelet PDE-V; 0.1 μM [3H]-cGMP substrate, 30° C., 10 minutes; read-out: Inhibitory activity IC50.
Consider `COc1ccc(CNC(=O)c2cc([N+](=O)[O-])ccc2N[C@H]2CC[C@H](N)CC2)cc1OC` [2-[(trans-4-Aminocyclohexyl)amino]-N-(3,4-dimethoxybenzyl)-5-nitrobenzamide], for which the IC50 is below 10 nM.
As for `COc1ccc(CNC(=O)c2cc([N+](=O)[O-])ccc2N[C@H]2CC[C@H](NC(=NC(=O)OC(C)(C)C)NC(=O)OC(C)(C)C)CC2)cc1OC` [2-{trans-4-[2,3-bis(tert-butoxycarbonyl)guanidino]cyclohexylamino}-N-(3,4-dimethoxybenzyl)-5-nitrobenzamide], the IC50 was below 10 nM.
For `O=C(NCc1ccc2c(c1)OCO2)c1cc([N+](=O)[O-])ccc1NC1CCSCC1` [5-Nitro-N-(1,3-benzodioxol-5-ylmethyl)-2-(tetrahydro-2H-thiopyran-4-ylamino)benzamide], the IC50 is below 10 nM.
For the compound `COc1ccc(CNC(=O)c2cc(Br)ccc2NC2CCCC2)cc1Cl` [5-bromo-N-(3-chloro-4-methoxybenzyl)-2-(cycloperitylamino)benzamide hydrochloride], the IC50 was below 10 nM.
Consider `O=C1CCC(Nc2ccc([N+](=O)[O-])cc2C(=O)NCc2ccc3c(c2)OCO3)CC1` [5-nitro-2-(4-oxocyclohexylamino)-N-(1,3-benzodioxol-5-ylmethyl)benzamide], for which the IC50 is below 10 nM.
Still for that read-out and setting: the same measure for `O=C(NCc1ccc2c(c1)OCO2)c1cc([N+](=O)[O-])ccc1NC1CCNCC1` [5-nitro-2-(4-piperidinylamino)-N-(1,3-benzodioxol-5-ylmethyl)benzamide]: below 10 nM; for `CC[C@H](CO)Nc1ccc([N+](=O)[O-])cc1C(=O)NCc1ccc2c(c1)OCO2` [(R)-2-(1-Ethyl-2-hydroxyethylamino)-5-nitro-N-(1,3-benzodioxol-5-ylmethyl)benzamide]: below 10 nM.
With `C[C@H](CO)Nc1ccc([N+](=O)[O-])cc1C(=O)NCc1ccc(-c2ccccc2)cc1` [(R)-2-(2-Hydroxy-1-methylethyl)amino-5-nitro-N-(4-phenybenzyl)benzamide], the half-maximal inhibitory concentration (IC50) was below 10 nM.
For the compound `COC(=O)[C@@H](C)Nc1ccc([N+](=O)[O-])cc1C(=O)NCc1ccc2c(c1)OCO2` [(R)-2-[1-(Methoxycarbonyl)ethylamino]-5-nitro-N-(1,3-benzodioxol-5-ylmethyl)benzamide], the concentration for half-maximal inhibition (IC50) is below 10 nM.
Regarding `O=C(NCc1ccc2c(c1)OCO2)c1cc([N+](=O)[O-])ccc1N[C@@H]1CCOC1` [(R)-5-Nitro-2-(tetrahydro-3-furanylamino)-N-(1,3-benzodioxol-5-ylmethyl)benzamide], the IC50 was below 10 nM.
As to `CC(C)[C@@H](CO)Nc1ccc([N+](=O)[O-])cc1C(=O)NCc1ccc2c(c1)OCO2` [(S)-2-[1-(Hydroxymethyl)-2-methylpropylamino]-5-nitro-N-(1,3-benzodioxol-5-ylmethyl)benzamide], the IC50 is below 10 nM.
On to `CC[C@@H](CCl)Nc1ccc([N+](=O)[O-])cc1C(=O)NCc1ccc2c(c1)OCO2` [(S)-2-[1-(chloromethyl)propylamino]-5-nitro-N-(1,3-benzodioxol-5-ylmethyl)benzamide], for which the IC50 is below 10 nM.
As to `COc1ccc(CNC(=O)c2cc([N+](=O)[O-])ccc2N[C@H](CO)CNC=O)cc1OC` [(S)-N-(3,4-Dimethoxybenzyl)-2-[1-(formamidomethyl)-2-hydroxyethylamino]-5-nitrobenzamide], the half-maximal inhibitory concentration (IC50) is below 10 nM.
Same read-out and setting: the same measure for `COc1ccc(CNC(=O)c2cc([N+](=O)[O-])ccc2NC2CCCC2)c(Cl)c1` [N-(2-Chloro-4-methoxybenzyl)-2-(cyclopentyrlamino)-5-nitrobenzamide]: below 10 nM; for `COc1ccc(Cl)c(CNC(=O)c2cc([N+](=O)[O-])ccc2N[C@H]2CC[C@@H](O)CC2)c1` [N-(2-Chloro-5-methoxybenzyl)-2-(cis-4-hydroxycyclohexylamino)-5-nitrobenzamide]: below 10 nM.
Still for that read-out and setting: the figure for `O=C(NCc1ccccc1Cl)c1cc([N+](=O)[O-])ccc1NC1CCCC1` [N-(2-Chlorobenzyl)-2-cyclopentylamino-5-nitrobenzamide] is below 10 nM.
Still for that read-out and setting: the same measure for `COc1ccc(CNC(=O)c2cc([N+](=O)[O-])ccc2NC2CCNCC2)cc1OC` [N-(3,4-Dimethoxybenzyl)-5-nitro-2-(4-piperidinylamino)benzamide]: below 10 nM.
`O=C(NCc1ccc2c(c1)OCCO2)c1cc([N+](=O)[O-])ccc1N[C@H]1CC[C@H](O)CC1` [N-(3,4-Ethylenedioxybenzyl)-2-(trans-4-hydroxycyclohexylamino)-5-nitrobenzamide]: the IC50 was below 10 nM.
Same read-out and setting: the same measure for `COc1ccc(CNC(=O)c2cc([N+](=O)[O-])ccc2NC2COC(C)(C)OC2)cc1OC` [N-(3,4-dimethoxybenzyl)-2-(2,2-dimethyl-1,3-dioxan-5-ylamino)-5-nitrobenzamide]: below 10 nM.
Still for that read-out and setting: the same measure for `COc1ccc(CNC(=O)c2cc([N+](=O)[O-])ccc2N[C@H]2CC[C@H](NC(=N)N)CC2)cc1OC` [N-(3,4-dimethoxybenzyl)-2-(trans-4-guanidinocyclohexylamino)-5-nitrobenzamide hydrochloride]: below 10 nM.
Still for that read-out and setting: the figure for `COc1ccc(CNC(=O)c2cc([N+](=O)[O-])ccc2NC2COC(=O)OC2)cc1OC` [N-(3,4-dimethoxybenzyl)-5-nitro-2-(2-oxo-1,3-dioxan-5-ylamino)benzamide] is below 10 nM; for `CCCNC(=O)N[C@H]1CC[C@H](Nc2ccc([N+](=O)[O-])cc2C(=O)NCc2ccc(OC)c(OC)c2)CC1` [N-(3,4-dimethoxybenzyl)-5-nitro-2-[trans-4-(3-propylureido)cyclohexylamino]benzamide] it is below 10 nM; for `COc1c(Cl)cc(CNC(=O)c2cc([N+](=O)[O-])ccc2N[C@H]2CC[C@H](O)CC2)cc1Cl` [N-(3,5-Dichloro-4-methoxybenzyl)-2-(trans-4-hydroxycyclohexylamino)-5-nitrobenzamide] it is below 10 nM.
`COc1ccc(CNC(=O)c2cc(C(F)(F)F)ccc2NC(CO)CO)cc1Cl` [N-(3-Chloro-4-methoxybenzyl)-2-[2-hydroxy-1-(hydroxymethyl)ethylamino]-5-(trifluoromethyl)benzamide]: the IC50 is below 10 nM.
On the same count and under the same terms, the figure for `O=C(NCc1cccc(Cl)c1)c1cc([N+](=O)[O-])ccc1NC1CCCC1` [N-(3-Chlorobenzyl)-2-(cyclopentylamino)-5-nitrobenzamide] is below 10 nM; for `COc1ccc(CNC(=O)c2cc([N+](=O)[O-])ccc2NC(CO)CO)cc1F` [N-(3-Fluoro-4-methoxybenzyl)-2-[2-hydroxy-1-(hydroxynethyl)ethylamino]-5-nitrobenzamide] it is below 10 nM.
On the same count and under the same terms, the figure for `Nc1ccc(CNC(=O)c2cc([N+](=O)[O-])ccc2NC2CCCC2)cc1` [N-(4-Aminobenzyl)-2-(cyclopentylamino)-5-nitrobenzamide] is below 10 nM; for `O=C(NCc1ccc(Br)cc1)c1cc([N+](=O)[O-])ccc1NC1CCCC1` [N-(4-Bromobenzyl)-2-(cyclopentylamino)-5-nitrobenzamide] it is below 10 nM.
Turning to `CCOc1cc(CNC(=O)c2cc([N+](=O)[O-])ccc2N[C@H]2CC[C@@H](O)CC2)ccc1Cl` [N-(4-Chloro-3-ethoxybenzyl)-2-(cis-4-hydroxycyclohexylamino)-5-nitrobenzaride], the IC50 was below 10 nM.
Turning to `O=C(NCc1ccc(Cl)cc1)c1cc([N+](=O)[O-])ccc1NC1CCCC1` [N-(4-Chlorobenzyl)-2-(cyclopentylamino)-5-nitrobenzamide], the IC50 is below 10 nM.
Still for that read-out and setting: the figure for `COc1cc(CNC(=O)c2cc([N+](=O)[O-])ccc2NC(CO)CO)ccc1OCC1CCC1` [N-(4-Cyclobutylmethoxy-3-methoxybenzyl)-2-[2-hydroxy-1-(hydroxymethyl)ethylamino]-5-nitrobenzamide] is below 10 nM; for `CCOc1ccc(CNC(=O)c2cc([N+](=O)[O-])ccc2N[C@H]2CC[C@@H](O)CC2)cc1OC` [N-(4-Ethoxy-3-methoxybenzyl)-2-(cis-4-hydroxycyclohexylamino)-5-nitrobenzamide] it is below 10 nM.
On the same count and under the same terms, the figure for `CCOc1ccc(CNC(=O)c2cc([N+](=O)[O-])ccc2N[C@H]2CC[C@H](NC=O)CC2)cc1OC` [N-(4-Ethoxy-3-methoxybenzyl)-2-(trans-4-formamidocyclohexylamino)-5-nitrobenzamide] is below 10 nM.
Turning to `Nc1ccc(CNC(=O)c2cc([N+](=O)[O-])ccc2NC2CCCC2)c(Cl)c1` [N-(4-amino-2-chlorobenzyl)-2-(cyclopentylamino)-5-nitrobenzamide], the IC50 was below 10 nM.
The same measure, in the same setting: the figure for `O=C(NCc1cc2ccccc2s1)c1cc([N+](=O)[O-])ccc1N[C@H]1CC[C@@H](O)CC1` [N-(Benzo[b]thiophen-2-ylmethyl)-2-(cis-4-hydroxycyclohexylamino)-5-nitrobenzamide] is below 10 nM.
On the same count and under the same terms, the figure for `O=C(NCc1cc2ccccc2o1)c1cc([N+](=O)[O-])ccc1N[C@H]1CC[C@@H](O)CC1` [N-(Benzofuran-2-ylmethyl)-2-(cis-4-hydroxycyclohexylamino)-5-nitrobenzamide] is below 10 nM.
On the same count and under the same terms, the same measure for `O=C(NCc1ccccc1)c1cc([N+](=O)[O-])ccc1NC1CCC(O)C1` (centres unmarked) [N-Benzyl-2-(3-hydroxycyclopentylamino)-5-nitrobenzamide]: below 10 nM.
